From article PMC10857906, “PROTAC-mediated NR4A1 degradation as a novel strategy for cancer immunotherapy” (The Journal of Experimental Medicine, 2024)

Columns and labels:
[1] = Toxicity testing in non-tumor-bearing mice; type: in vivo, C57BL/6J mice
Procedure: (§1) For syngeneic tumor models, 5 × 10^5 cells MC38, Yumm1.7, and Yummer1.7, 1 × 10^5 cells of B16F10 were resuspended in PBS and implanted into 7–9-wk-old mice subcutaneously. For the tumor inhibition experiment, mice were treated with 1.8 mg/kg NR-V04 or 0.75 mg/kg celastrol by i.p. injection twice weekly. For the immune profile experiment, once tumors reached 0.5 cm in diameter, mice were treated with 1.8 mg/kg NR-V04 by i.p. injection twice weekly. For the toxicity experiment, male and female non-tumor-bearing mice were treated with 2 mg/kg NR-V04 for two doses in the first week and 5 mg/kg for another two doses in the second week. Blood samples were taken from the submandibular (facial) vein before each treatment and 42 days later for hematological analysis, and body weight was measured twice per week up to day 42. Mice were euthanized in accordance with the IACUC protocol once the largest tumors reached 2 cm in diameter, and tissues were collected for further analysis.
Mouse blood was prepared in microcentrifuge tubes containing PBS with 10 mM EDTA. Blood indices were analyzed using an automated hematology analyzer (Element HT5; Heska).
For H&E staining, mouse tissues were fixed in 10% formalin (SF98-4; Thermo Fisher Scientific) processed in the University of Florida Molecular Pathology Core. H&E staining was conducted using standard procedures. The sections were hydrated through xylene and a series of ethanol, followed by staining with H&E on slides.

NR4A1 [2] = target: T1, NR4A1 (Mus musculus, UniProt P12813); test: PD: NR4A1 degradation in MC38 tumors in mice (immunoblotting); type: in vivo
T1 construct: from tissue; host or cells: MC38 tumours in mice (tumour lysates)
Procedure: (§2) Samples were lysed using radioimmunoprecipitation assay buffer (RIPA) lysis buffer (150 mM NaCl, 5 mM EDTA, 50 mM Tris pH 8.0, 0.5% sodium deoxycholate, 1% NP-40, 0.1% SDS) supplemented with 1 mM dithiothreitol and protease inhibitors. The lysates were separated by SDS-PAGE and analyzed using standard western blotting procedures ([Khan et al., 2019]). Antibodies: human NR4A1 (ab153914, 1:1,000; Abcam), mouse NR4A1 (14-5965-82, 1:1,000; Invitrogen), NR4A2 (AV38753, 1:1,000; Sigma-Aldrich), NR4A3 (TA804893, 1: 1,000; Thermo Fisher Scientific), VHL (68547, 1:1,000; Cell Signaling), β-actin (13E5, 1:5,000; Cell Signaling), β-tubulin (9F3, 1: 5,000; Cell Signaling), and GAPDH (D16H11, 1: 5,000; Cell Signaling) were employed for protein detection.
7–9-wk-old C57BL/6J, B6.129S2-Ighm^tm1Cgn/J (002288), B6.129S2-Nr4a1^tm1Jmi/J (NR4A1^−/−, 006187), and NOD-SCID interleukin-2 receptor gamma null (NSG) mice were purchased from Jackson Laboratories. […]
For syngeneic tumor models, 5 × 10^5 cells MC38, Yumm1.7, and Yummer1.7, 1 × 10^5 cells of B16F10 were resuspended in PBS and implanted into 7–9-wk-old mice subcutaneously. […] Blood samples were taken from the submandibular (facial) vein before each treatment and 42 days later for hematological analysis, and body weight was measured twice per week up to day 42. […]

NR4A1 [3] = target: T2, NR4A1 (Homo sapiens, UniProt P22736); test: NR4A1 degradation in CHL-1 human melanoma cells (immunoblotting); type: cell-based; conditions: CHL-1 cells
T2 construct: NR-V04 effectively promoted the degradation of NR4A1 in two human melanoma cell lines within 16 h; endogenous in cells; host or cells: CHL-1, A375, WM164, M229 human melanoma cells
Procedure: Human melanoma cell lines: A375 and CHL-1 (gifts from Dr. D. Zhou, the University of Texas Health Science Center, San Antonio, TX, USA) were cultured in Dulbecco’s Modified Eagles’ Medium (DMEM, D5796; Sigma-Aldrich), WM164 and M229 (gifts from Dr. K.S.M. Smalley’s lab) were cultured in RPMI-1640 (R8758; Sigma-Aldrich). Mouse melanoma cell lines: B16F10 (CRL-6475, ATCC) was cultured in DMEM, SW1 and SM1 (gift from Dr. K.S.M. Smalley, Moffitt Cancer Center, Tampa, FL, USA) were cultured in RPMI. Human epithelial kidney cell lines: HEK293T (293T, CRL-3216; ATCC) and Vhl-KO-293T (gift from Dr. D. Zhou, the University of Texas Health Science Center, San Antonio, TX, USA) were cultured in DMEM. Mouse colon cancer cell lines: MC38 (ENH204-FP; Kerafast Inc.) was cultured in DMEM supplemented with 1 mM glutamine, […] non-essential amino acids (11140050; Thermo Fisher Scientific), 1 mM sodium pyruvate (11360070; Thermo Fisher Scientific), and 10 mM HEPES (15630080; Thermo Fisher Scientific). All cell culturing media were supplemented with 10% fetal bovine serum (FBS, F2442; Sigma-Aldrich), 100 U/ml penicillin, and 100 µg/ml streptomycin (P4333; Sigma-Aldrich).
as §2

NR4A1 and VHL = NR4A1 and VHL (Homo sapiens, UniProt P22736+P40337); test: Proximity ligation assay (PLA) for the NR4A1-VHL ternary complex; type: cell-based; parameters: endogenous in cells; host or cells: CHL-1 and A375 human melanoma cells; conditions: CHL-1 and A375 cells, 500 nM, 16 h, 0.5 μM MG132 pretreatment
Procedure: 5 × 10^4 CHL-1 and A375 cells were cultured in Nunc Lab-Tek Chamber Slide (177402; Thermo Fisher Scientific). The cells were treated with DMSO, 500 nM celastrol, and 500 nM NR-V04 for 16 h with MG132 inhibitor. The PLA was conducted with Duolink In Situ Red Starter Kit Mouse/Rabbit (DUO92101; Sigma-Aldrich) following the standard protocol. Additionally, a non-stain cell group was included as a negative control to account for background signal during PLA assay. The signal was detected using a confocal microscope (LSM 710; Zeiss). Primary antibody: NR4A1 (HPA059742, 2 μg/ml, isotype-rabbit; Sigma-Aldrich) and VHL (MA5-13940, 2 μg/ml, isotype-mouse; Thermo Fisher Scientific).

MC38 tumors = test: MC38 colon cancer syngeneic tumor model; type: in vivo, mouse
Description: 7–9-wk-old C57BL/6J, B6.129S2-Ighm^tm1Cgn/J (002288), B6.129S2-Nr4a1^tm1Jmi/J (NR4A1^−/−, 006187), and NOD-SCID interleukin-2 receptor gamma null (NSG) mice were purchased from Jackson Laboratories. For all studies involving NR-V04 and celastrol, the compounds were formulated in 50% phosal PG, 45% miglyol 810N, and 5% polysorbate 80 and administered via i.p. injection.
as §1

T2 sequence (P22736 whole entry): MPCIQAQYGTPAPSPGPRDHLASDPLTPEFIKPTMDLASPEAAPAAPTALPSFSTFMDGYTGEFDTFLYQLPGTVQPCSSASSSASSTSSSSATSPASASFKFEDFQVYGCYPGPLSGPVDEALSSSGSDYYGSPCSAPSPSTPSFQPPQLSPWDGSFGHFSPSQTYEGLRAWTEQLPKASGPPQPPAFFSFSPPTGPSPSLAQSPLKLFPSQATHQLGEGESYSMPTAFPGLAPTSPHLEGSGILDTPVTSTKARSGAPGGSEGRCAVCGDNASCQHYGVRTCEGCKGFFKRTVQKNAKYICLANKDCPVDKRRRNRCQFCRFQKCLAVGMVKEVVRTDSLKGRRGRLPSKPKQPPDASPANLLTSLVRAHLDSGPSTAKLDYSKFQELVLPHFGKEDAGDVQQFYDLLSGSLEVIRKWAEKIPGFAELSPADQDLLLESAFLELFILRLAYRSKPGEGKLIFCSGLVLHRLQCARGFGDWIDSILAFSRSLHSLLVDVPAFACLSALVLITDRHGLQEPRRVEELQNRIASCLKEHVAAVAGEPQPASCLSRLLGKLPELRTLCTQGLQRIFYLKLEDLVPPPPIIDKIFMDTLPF
T1 sequence (P12813 whole entry): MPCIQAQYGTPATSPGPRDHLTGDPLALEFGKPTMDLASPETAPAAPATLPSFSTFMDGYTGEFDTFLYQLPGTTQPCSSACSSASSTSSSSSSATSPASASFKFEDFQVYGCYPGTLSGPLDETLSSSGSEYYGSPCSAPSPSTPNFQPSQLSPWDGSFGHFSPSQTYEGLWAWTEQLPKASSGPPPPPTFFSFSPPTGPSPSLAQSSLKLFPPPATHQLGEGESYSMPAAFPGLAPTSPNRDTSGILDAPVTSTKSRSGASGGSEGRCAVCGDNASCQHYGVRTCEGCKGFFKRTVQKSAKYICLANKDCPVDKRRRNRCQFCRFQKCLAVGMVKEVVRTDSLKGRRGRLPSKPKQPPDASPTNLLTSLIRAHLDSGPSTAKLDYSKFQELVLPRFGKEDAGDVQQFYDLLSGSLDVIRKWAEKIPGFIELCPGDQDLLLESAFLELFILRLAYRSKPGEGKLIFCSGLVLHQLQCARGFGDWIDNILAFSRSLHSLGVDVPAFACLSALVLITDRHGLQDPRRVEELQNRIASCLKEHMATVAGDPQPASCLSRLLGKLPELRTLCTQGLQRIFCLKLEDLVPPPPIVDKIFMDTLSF
NR4A1 and VHL, sequence (P22736 whole entry): as the sequence (P22736 whole entry) above
NR4A1 and VHL, sequence (P40337 whole entry): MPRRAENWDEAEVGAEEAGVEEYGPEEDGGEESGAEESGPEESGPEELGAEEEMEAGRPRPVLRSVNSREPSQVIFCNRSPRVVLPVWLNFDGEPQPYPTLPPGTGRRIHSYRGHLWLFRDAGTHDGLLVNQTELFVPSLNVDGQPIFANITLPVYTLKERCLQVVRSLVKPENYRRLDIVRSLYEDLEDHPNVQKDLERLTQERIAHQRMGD
NR4A1 and VHL, sequence (Q15369 whole entry partner): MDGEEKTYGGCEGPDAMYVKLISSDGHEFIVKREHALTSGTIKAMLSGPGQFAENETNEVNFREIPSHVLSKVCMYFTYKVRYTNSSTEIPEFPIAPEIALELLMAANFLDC
NR4A1 and VHL, sequence (Q15370 whole entry partner): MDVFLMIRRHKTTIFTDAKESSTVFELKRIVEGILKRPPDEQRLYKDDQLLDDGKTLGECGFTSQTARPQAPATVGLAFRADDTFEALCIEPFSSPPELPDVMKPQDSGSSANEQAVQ

With `CC1=C(O)C(=O)C=C2C1=CC=C1[C@@]2(C)CC[C@@]2(C)[C@@H]3C[C@](C)(C(=O)NCCOCCOCCOCCOCC(=O)N[C@H](C(=O)N4C[C@H](O)C[C@H]4C(=O)N[C@@H](C)c4ccc(-c5scnc5C)cc4)C(C)(C)C)CC[C@]3(C)CC[C@]12C` [NR-V04] the “histology (H&E) of kidney, liver and small intestine” value ([1]; male and female mice, day 42) was “did not induce tissue damage”, the body weight ([1]; male and female mice, two doses of 2 mg/kg and two doses of 5 mg/kg over 2 wk, 42 days) was “no significant change in body weight” and the “hematological parameters (complete blood counts)” value ([1]; two doses of 2 mg/kg and two doses of 5 mg/kg, day 0, 7, 14, 42) was “no significant changes in hematological parameters”. The “NR4A1 protein in MC38 tumors at termination” value (NR4A1 [2]; 8 doses for 4 wk, 1.8 mg/kg NR-V04 or 0.75 mg/kg celastrol, every 4 days) was “almost completely degraded”, the “NR4A1 degradation in MC38 tumors” value (NR4A1 [2]; two doses of 1.8 mg/kg i.p., tumors collected 1-4 days after the last treatment) was “significant degradation of NR4A1 starting from day 1 and persisting for 3 days” and the “NR4A1 protein level, initial screening” value (NR4A1 [3]; 250 nM, 16 h, immunoblotting and densitometry) was “highest potency in reducing the protein level of NR4A1”. The “NR4A1 protein level with proteasome inhibitor MG132 pretreatment” value (NR4A1 [3]; 0.5 μM MG132 10 min, then 500 nM NR-V04 16 h) was “effectively rescued the NR4A1 protein level”, the “NR4A1 protein level at early time point” value (NR4A1 [3]; 500 nM, 4 h) was “initial induction of NR4A1 protein” and the “NR4A1 degradation with VHL ligand VHL-032 pretreatment” value (NR4A1 [3]; 10 µM VHL 032 10 min, then 500 nM NR-V04 16 h) was “prevented”. For the same compound, the DC50 (NR4A1 [3]; 16 h treatment, read-out: 50% degradation concentration (DC50) of NR4A1) was 229 nM, the “PLA signals (ternary complex formation NR4A1-VHL)” value (NR4A1 and VHL) was “induced strong PLA signals” and the tumor growth (MC38 tumors; MC38 in NSG mice, 1.8 mg/kg i.p.) was “failed to inhibit tumor growth”. For the same compound, the tumor growth (MC38 tumors; MC38 in WT mice, 1.8 mg/kg NR-V04 or 0.75 mg/kg celastrol i.p. twice a week from day 7) was “effectively inhibited tumor growth” and the “CD8^+ Texh cells in vivo” value (MC38 tumors; MC38 tumors) was “did not observe a significant decrease in CD8^+ Texh cells”.
